Assay results taken from patent publication US20070049564A1 (Wyeth, priority 2005, published 2007).
In brackets after ≈: the same amount, converted by molar mass. Read-outs that look alike come from different tables or passages of the source.

Columns and labels:
S. aureus GC 1131 = experiment: MIC, broth microdilution; details: Staphylococcus aureus
E. faecium GC 4556 = experiment: MIC, broth microdilution; details: for MIC: Enterococcus faecium
E. coli GC 2231 = experiment: MIC, broth microdilution; details: Escherichia coli, GC2231, read-out: MINIMAL INHIBITORY CONCENTRATION MIC, pre-incubated in Water
S. epidermidis GC 4935 = experiment: MIC, broth microdilution; details: Staphylococcus epidermidis
S. typhimurium GC 2172 = experiment: MIC, broth microdilution; details: for MIC: Salmonella enterica, TYPHIMURIUM
S. pyogenes GC 4563 = experiment: MIC, broth microdilution; details: for MIC: Streptococcus pyogenes
E. coli GC 3226 = experiment: MIC, broth microdilution; details: Escherichia coli, GC3226, read-out: MINIMAL INHIBITORY CONCENTRATION MIC, pre-incubated in Water
S. aureus GC 2216 = experiment: MIC, broth microdilution; details: Staphylococcus aureus
E. faecium GC 2243 = experiment: MIC, broth microdilution; details: for MIC: Enterococcus faecium
S. pneumoniae+ GC 4465 = experiment: MIC, broth microdilution; details: for MIC: Streptococcus pneumoniae
Staph. aureus Smith = experiment: In vivo activity (oral, iv; ED50) against Staph. aureus Smith in mice
Description: Representative examples of compounds of Formula I were tested for the oral efficacy using S. aureus Smith in mice.

E. faecalis GC 2267 = experiment: MIC, broth microdilution; details: for MIC: Enterococcus faecalis
E. coli GC 2234 = experiment: MIC, broth microdilution; details: Escherichia coli, GC2234, read-out: MINIMAL INHIBITORY CONCENTRATION MIC, pre-incubated in Water
E. coli GC 2232 = experiment: MIC, broth microdilution; details: Escherichia coli, GC2232, read-out: MINIMAL INHIBITORY CONCENTRATION MIC, pre-incubated in Water
c. albicans GC 3066 = experiment: MIC, broth microdilution
S. pneumoniae* GC 4465 = experiment: MIC, broth microdilution; details: for MIC: Streptococcus pneumoniae
S. aureus GC 6335 = experiment: MIC, broth microdilution; details: for MIC: Staphylococcus aureus
S. aureus GC 6466 = experiment: MIC, broth microdilution; details: for MIC: Staphylococcus aureus
S. aureus GC 1079 = experiment: MIC, broth microdilution; details: for MIC: Staphylococcus aureus
E. coli GC 2272 = experiment: MIC, broth microdilution; details: Escherichia coli, GC2272, read-out: MINIMAL INHIBITORY CONCENTRATION MIC, pre-incubated in Water
[1] = read-out: MINIMAL INHIBITORY CONCENTRATION MIC, pre-incubated in Mouse Serum
[2] = read-out: MINIMAL INHIBITORY CONCENTRATION MIC, pre-incubated in Water

CN(C)c1cc(NC(=O)CN(C(=O)OCOC(=O)CC(C)(C)C)C(C)(C)C)c(O)c2c1C[C@H]1C[C@H]3[C@H](N(C)C)C(O)=C(C(N)=O)C(=O)[C@@]3(O)C(O)=C1C2=O [Example 42, ({[(2-{[(5aR,6aS,7S,10aS)-9-(aminocarbonyl)-4,7-bis(dimethylamino)-1,8,10a,11-tetrahydroxy-10,12-dioxo-5,5a,6,6a,7,10,10a,12-octahydrotetracen-2-yl]amino}-2-oxoethyl)(tert-butyl)amino]carbonyl}oxy)methyl 3,3-dimethylbutanoate]
MIC (S. aureus GC 1131; GC1131, read-out: MINIMAL INHIBITORY CONCENTRATION MIC, pre-incubated in Mouse Serum): 2 µg/mL (≈ 2.64 µM) | MIC (S. aureus GC 1131; GC1131, read-out: MINIMAL INHIBITORY CONCENTRATION MIC, pre-incubated in Water): 4 µg/mL (≈ 5.28 µM) | MIC (E. faecium GC 4556; GC4556, read-out: MINIMAL INHIBITORY CONCENTRATION MIC, pre-incubated in Mouse Serum): 2 µg/mL (≈ 2.64 µM) | MIC (E. faecium GC 4556; GC4556, read-out: MINIMAL INHIBITORY CONCENTRATION MIC, pre-incubated in Water): 8 µg/mL (≈ 10.6 µM) | MINIMAL INHIBITORY CONCENTRATION MIC (E. faecium GC 4556; pre-incubated in Mouse Serum): 4 UG/ML | MIC (E. coli GC 2231): > 64 µg/mL | MIC (S. epidermidis GC 4935; GC4935, read-out: MINIMAL INHIBITORY CONCENTRATION MIC, pre-incubated in Mouse Serum): 4 µg/mL (≈ 5.28 µM) | MIC (S. epidermidis GC 4935; GC4935, read-out: MINIMAL INHIBITORY CONCENTRATION MIC, pre-incubated in Water): 8 µg/mL (≈ 10.6 µM) | MIC (S. typhimurium GC 2172; [1]): 64 µg/mL (≈ 84.5 µM) | MIC (S. typhimurium GC 2172; [2]): > 64 µg/mL | MINIMAL INHIBITORY CONCENTRATION MIC (S. typhimurium GC 2172; pre-incubated in Mouse Serum): >64 UG/ML | MIC (S. pyogenes GC 4563; GC4563, read-out: MINIMAL INHIBITORY CONCENTRATION MIC, pre-incubated in Mouse Serum): 2 µg/mL (≈ 2.64 µM) | MIC (S. pyogenes GC 4563; GC4563, read-out: MINIMAL INHIBITORY CONCENTRATION MIC, pre-incubated in Water): 4 µg/mL (≈ 5.28 µM) | MINIMAL INHIBITORY CONCENTRATION MIC (S. pyogenes GC 4563; pre-incubated in Mouse Serum): 4 UG/ML | MIC (E. coli GC 3226): > 64 µg/mL | MIC (S. aureus GC 2216; GC2216, read-out: MINIMAL INHIBITORY CONCENTRATION MIC, pre-incubated in Mouse Serum): 2 µg/mL (≈ 2.64 µM) | MIC (S. aureus GC 2216; GC2216, read-out: MINIMAL INHIBITORY CONCENTRATION MIC, pre-incubated in Water): 4 µg/mL (≈ 5.28 µM) | MIC (E. faecium GC 2243; GC2243, read-out: MINIMAL INHIBITORY CONCENTRATION MIC, pre-incubated in Mouse Serum): 2 µg/mL (≈ 2.64 µM) | MIC (E. faecium GC 2243; GC2243, read-out: MINIMAL INHIBITORY CONCENTRATION MIC, pre-incubated in Water): 4 µg/mL (≈ 5.28 µM) | MINIMAL INHIBITORY CONCENTRATION MIC (E. faecium GC 2243; pre-incubated in Mouse Serum): 4 UG/ML | MIC (S. pneumoniae+ GC 4465; [1]): 4 µg/mL (≈ 5.28 µM) | MIC (S. pneumoniae+ GC 4465; [2]): 8 µg/mL (≈ 10.6 µM) | MINIMAL INHIBITORY CONCENTRATION MIC (S. pneumoniae+ GC 4465; pre-incubated in Mouse Serum): 8 UG/ML | ED50 (Staph. aureus Smith; Staphylococcus aureus, in Mus musculus, iv, read-out: ED50 SIV (Staph aureus Smith)): 1.43 mg/kg | ED50 (Staph. aureus Smith; Staphylococcus aureus, in Mus musculus, po, read-out: ED50 SOD (Staph aureus Smith)): 5.68 mg/kg | ED50 (Staph. aureus Smith; Staphylococcus aureus, in Mus musculus, po, read-out: ED50 Staph Smith SOD): 5.68 mg/kg | ED50 (Staph. aureus Smith; iv, read-out: ED50 Staph Smith SIV): 1.43 mg/kg | MIC (E. faecalis GC 2267; GC2267, read-out: MINIMAL INHIBITORY CONCENTRATION MIC, pre-incubated in Mouse Serum): 2 µg/mL (≈ 2.64 µM) | MIC (E. faecalis GC 2267; GC2267, read-out: MINIMAL INHIBITORY CONCENTRATION MIC, pre-incubated in Water): 4 µg/mL (≈ 5.28 µM) | MINIMAL INHIBITORY CONCENTRATION MIC (E. faecalis GC 2267; pre-incubated in Mouse Serum): 4 UG/ML | MIC (E. coli GC 2234): > 64 µg/mL | MIC (E. coli GC 2232): > 64 µg/mL | MIC (c. albicans GC 3066; Candida albicans, GC3066, read-out: MINIMAL INHIBITORY CONCENTRATION MIC): > 64 µg/mL | MINIMAL INHIBITORY CONCENTRATION MIC (c. albicans GC 3066; pre-incubated in Mouse Serum): >64 UG/ML | MIC (S. pneumoniae* GC 4465; [1]): 2 µg/mL (≈ 2.64 µM) | MIC (S. pneumoniae* GC 4465; [2]): 4 µg/mL (≈ 5.28 µM) | MINIMAL INHIBITORY CONCENTRATION MIC (S. pneumoniae* GC 4465; pre-incubated in Mouse Serum): 4 UG/ML | MIC (S. aureus GC 6335; GC6335, read-out: MINIMAL INHIBITORY CONCENTRATION MIC, pre-incubated in Mouse Serum): 2 µg/mL (≈ 2.64 µM) | MIC (S. aureus GC 6335; GC6335, read-out: MINIMAL INHIBITORY CONCENTRATION MIC, pre-incubated in Water): 4 µg/mL (≈ 5.28 µM) | MINIMAL INHIBITORY CONCENTRATION MIC (S. aureus GC 6335; pre-incubated in Mouse Serum): 4 UG/ML | MIC (S. aureus GC 6466; GC6466, read-out: MINIMAL INHIBITORY CONCENTRATION MIC, pre-incubated in Mouse Serum): 2 µg/mL (≈ 2.64 µM) | MIC (S. aureus GC 6466; GC6466, read-out: MINIMAL INHIBITORY CONCENTRATION MIC, pre-incubated in Water): 4 µg/mL (≈ 5.28 µM) | MINIMAL INHIBITORY CONCENTRATION MIC (S. aureus GC 6466; pre-incubated in Mouse Serum): 4 UG/ML | MIC (S. aureus GC 1079; GC1079, read-out: MINIMAL INHIBITORY CONCENTRATION MIC, pre-incubated in Mouse Serum): 2 µg/mL (≈ 2.64 µM) | MIC (S. aureus GC 1079; GC1079, read-out: MINIMAL INHIBITORY CONCENTRATION MIC, pre-incubated in Water): 4 µg/mL (≈ 5.28 µM) | MINIMAL INHIBITORY CONCENTRATION MIC (S. aureus GC 1079; pre-incubated in Mouse Serum): 4 UG/ML | MIC (E. coli GC 2272): > 64 µg/mL
